Assay results reported in US20090281129A1, “CDKI PATHWAY INHIBITORS AND USES THEREOF” (Senex Biotechnology, Inc., priority 2006, published 2009).
Entries after “also recorded” stand apart in the source; their conditions may differ.

Tests used:
Type in all cases: cell-based
[1] = biological target: T1, NFκB (p50 or p65 subunits) (Homo sapiens, UniProt P19838+Q04206); assay: TransAM NFκB p65 / p50 Chemi transcription factor assay (oligonucleotide binding); settings: for TNFα-induced NFκB activity: TNFα-treated cells; for basal NFκB activity: control cells
T1 construct: endogenous in cells
T1 sequence (P19838 1-433 limits assumed): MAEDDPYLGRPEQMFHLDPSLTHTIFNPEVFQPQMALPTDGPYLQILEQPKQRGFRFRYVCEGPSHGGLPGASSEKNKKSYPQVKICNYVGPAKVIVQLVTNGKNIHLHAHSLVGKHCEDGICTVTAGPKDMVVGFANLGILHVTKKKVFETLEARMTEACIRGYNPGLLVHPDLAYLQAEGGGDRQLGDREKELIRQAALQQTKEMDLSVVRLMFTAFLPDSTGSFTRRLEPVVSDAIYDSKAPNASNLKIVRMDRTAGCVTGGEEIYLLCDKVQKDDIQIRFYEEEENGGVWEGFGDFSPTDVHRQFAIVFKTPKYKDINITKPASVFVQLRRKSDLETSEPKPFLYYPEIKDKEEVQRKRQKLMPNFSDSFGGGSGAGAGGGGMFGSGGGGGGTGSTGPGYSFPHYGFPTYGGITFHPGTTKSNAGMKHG
T1 sequence (Q04206 whole entry): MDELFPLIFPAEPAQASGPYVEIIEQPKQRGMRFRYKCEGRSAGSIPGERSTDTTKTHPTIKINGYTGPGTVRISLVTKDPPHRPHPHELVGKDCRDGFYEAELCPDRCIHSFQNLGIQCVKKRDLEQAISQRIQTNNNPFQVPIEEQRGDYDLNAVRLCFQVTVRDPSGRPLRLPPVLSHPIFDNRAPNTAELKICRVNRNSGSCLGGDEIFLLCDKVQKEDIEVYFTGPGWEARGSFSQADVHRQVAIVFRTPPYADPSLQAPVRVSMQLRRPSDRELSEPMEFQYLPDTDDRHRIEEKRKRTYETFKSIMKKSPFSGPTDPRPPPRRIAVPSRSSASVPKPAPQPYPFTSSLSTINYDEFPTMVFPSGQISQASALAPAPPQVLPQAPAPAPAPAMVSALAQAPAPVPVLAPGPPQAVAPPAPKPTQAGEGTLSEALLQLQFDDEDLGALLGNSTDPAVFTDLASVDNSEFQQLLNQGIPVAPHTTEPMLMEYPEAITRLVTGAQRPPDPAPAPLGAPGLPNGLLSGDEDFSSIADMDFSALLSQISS
Description: The left set of bars represents cells treated with carrier control, the middle set represents cells treated with SNX2, and the right set represents cells treated with a known inhibitor of NFκB binding (TPCK).
We also tested if these compounds could act as the inhibitors of NFκB, by measuring cellular levels of p50 or p65 subunits binding oligonucleotides containing NFκB consensus binding site, using ACTIVE MOTIF TransAM™ NFκB p65 Chemi and NFκB p50 Chemi Transcription Factor Assay Kits.

[2] = test system: CDKI-responsive promoter of cellular NK4 gene; assay: NK4-luciferase reporter in HT1080 p21-9 cells, prevention and reversal of p21-induced transcription; settings: for induction of NK4-luciferase by p21 (reversal): compound added after two days of IPTG treatment; for induction of NK4-luciferase by p21: compound added simultaneously with IPTG
Method: The compounds show pronounced dose-dependent inhibition of transcription by p21, but they have only a marginal effect on the promoter function when p21 is not induced. […] In this experiment, HT1080 p21-9 cells that express firefly luciferase from a CDKI-responsive promoter of cellular NK4 gene were cultured with IPTG for two days, which is sufficient for near-maximal induction of NK4.

[3] = test system: HT1080 p21-9 cells co-cultured with C8 mouse fibroblast line; assay: Paracrine antiapoptotic activity of p21-expressing HT1080 p21-9 cells, survival of C8 cells in low-serum media; settings: p21 induction for three days in presence of compound; C8 survival after 3 days in 0.5% serum, luciferase assay
Description: We have also tested if SNX2-class compounds can inhibit paracrine tumor-promoting activities of CDKI-expressing cells. In the assay shown in FIG. 12, HT1080 p21-9 cells were either untreated or treated with p21-inducing IPTG, alone or in the presence of three SNX2-class compounds (SNX2, SNX14 and SNX38). After three days, cells were trypsinized, washed to remove residual compounds, and 3×10^3 cell aliquots of each sample were mixed (in 6 replicates) with 10^4 cell aliquots of C8 mouse fibroblast line, which is highly susceptible to apoptosis in low-serum media. (To detect C8 cells in co-culture, we had transduced them with a vector expressing firefly luciferase.) The next day after plating the mixtures in 96-well plates (in 10% serum and in the absence of IPTG or compounds), cells were exposed to low-serum (0.5%) media, and the relative number of surviving C8 cells was measured after 3 days by the luciferase assay.

[4] = test system: normal human WI-38 fibroblasts; assay: Doxorubicin-induced senescent phenotype (SA-β-gal) in WI-38 fibroblasts; settings: senescence induced by 200 nM doxorubicin
Method: We have correlated the ability of SNX2-class compounds to inhibit the induction of CDKI-responsive genes with their effect on the senescent phenotype, induced in normal human WI-38 fibroblasts by treatment with 200 nM doxorubicin.

HT1080 p27-2 cells = assay: FACS cell cycle analysis in HT1080 p27-2 cells with IPTG-inducible p27; settings: 20 μM compound, 24-hour treatment
Method: IPTG induces dose-dependent increase in the G1 fraction with a corresponding decrease in S and G2/M. The doses of IPTG used in this experiment induce G1 arrest at levels that are lower than the maximal levels that are produced by 50-100 μM IPTG, where >80% of cells are in G1.

HT1080 p21-9 cells = assay: FACS analysis of DNA content (cell cycle distribution) in HT1080 p21-9 cells; settings: 18 hrs; for increase in the G1 fraction relative to cells treated with IPTG alone: 20 μM compound added simultaneously with 50 μM IPTG; for decrease in the G2 fraction of IPTG-treated cells: 20 μM compound with 50 μM IPTG; for increase in the G1 fraction: 20 μM compound, in the absence of IPTG
Method: We have analyzed the effect of SNX2-class compounds on cell cycle distribution of p21-arrested HT1080 p21-9 cells. Upon p21 induction, these cells are known to arrest both in G1 and in G2 (Chang et al., Oncogene 19, 2165-2170), which is illustrated in FIG. 9 by a reduction in the S-phase but not in the G1 or G2 fractions of cells treated with 50 μM IPTG for 18 hrs, relative to IPTG-untreated cells (as determined by FACS analysis of DNA content in DAPI-stained cells). 20 μM concentrations of SNX2 or SNX14 produce a small increase in the G1 fraction in the absence of IPTG (4% increase with SNX2 and 5% increase with SNX14) (FIG. 9). However, when SNX2 and SNX14 were added simultaneously with IPTG, they produced a much greater increase in the G1 fraction relative to cells treated with IPTG alone (19% increase with SNX2 and 22% increase with SNX14) (FIG. 9).

**Q.** Which “TNFα-induced NFκB activity” value [1] does the source give for `Cc1ccc(S(=O)(=O)N[C@@H](Cc2ccccc2)C(=O)CCl)cc1` [TPCK, reference compound] here?
**A.** completely blocks

**Q.** And the “basal NFκB activity” value [1]?
**A.** completely blocks

**Q.** What does the source list for `COCCCNc1ncnc2ccc(I)cc12` [SNX38]?
**A.** induction of NK4-luciferase by p21 (reversal) [2]: reverses; also recorded: strongly decreased; induction of NK4-luciferase by p21 [2]: prevents; also recorded: strongly decreased; p21-induced increase of C8 cell survival (paracrine antiapoptotic activity) [3]: significantly diminished

**Q.** How did the “induction of NK4-luciferase by p21 (reversal)” value [2] turn out when `Cc1c(Cl)cccc1NC(=O)CCN1CCN(Cc2ccccc2)CC1` [SNX63] was run?
**A.** not two days later

**Q.** And the “induction of NK4-luciferase by p21” value [2]?
**A.** inhibited transcription

**Q.** What does the source list for `CC(C)Nc1ncnc2ccc(I)cc12` [SNX14]?
**A.** expression of senescence marker SA-β-gal [4]: block this phenotype; morphological changes associated with cell senescence [4]: diminish; effect on sub-maximal G1 arrest induced by IPTG (p27) (HT1080 p27-2 cells): strongly augmented; p21-induced increase of C8 cell survival (paracrine antiapoptotic activity) [3]: significantly diminished; also recorded: strongest effect; increase in the G1 fraction relative to cells treated with IPTG alone (HT1080 p21-9 cells): 22%; decrease in the G2 fraction of IPTG-treated cells (HT1080 p21-9 cells): 7%; increase in the G1 fraction (HT1080 p21-9 cells): 5%

**Q.** `CCCNc1ncnc2ccc(Br)cc12` [SNX2] was tested. Which “expression of senescence marker SA-β-gal” value [4] did it give?
**A.** block this phenotype

**Q.** What about the “morphological changes associated with cell senescence” value [4] of the same compound?
**A.** diminish

**Q.** What about the “TNFα-induced NFκB activity” value [1] of the same compound?
**A.** no significant effect

**Q.** And the “basal NFκB activity” value [1]?
**A.** no significant effect

**Q.** What about the “binding of NFκB proteins p50 or p65 to double-stranded DNA oligonucleotide comprising NFκB binding site” value ([1]; control or TNFα-treated cells) of the same compound?
**A.** does not inhibit

**Q.** What about the “p21-induced increase of C8 cell survival (paracrine antiapoptotic activity)” value [3] of the same compound?
**A.** significantly diminished

**Q.** What about the “increase in the G1 fraction relative to cells treated with IPTG alone” value (HT1080 p21-9 cells) of the same compound?
**A.** 19%

**Q.** What about the “decrease in the G2 fraction of IPTG-treated cells” value (HT1080 p21-9 cells) of the same compound?
**A.** 6%

**Q.** What about the “increase in the G1 fraction” value (HT1080 p21-9 cells) of the same compound?
**A.** 4%
